The results in this text go back to paper PMC6700816, “A novel starch-binding laccase from the wheat pathogen Zymoseptoria tritici highlights the functional diversity of ascomycete laccases” (BMC Biotechnology, 2019).

This assay addresses T1, ZtrLac1A (Zymoseptoria tritici, UniProt F9XCG9).
T1 construct: gene MYCGRDRAFT_109666; mature protein residues 46-723, native signal peptide removed; catalytic module (556 residues) plus linker plus CBM20; secreted by Pichia pastoris X-33 (pPICZalphaA); N-glycosylated; 79 kDa calculated, 93 kDa on SDS-PAGE; EC 1.10.3.2
T1 sequence (F9XCG9 46-723): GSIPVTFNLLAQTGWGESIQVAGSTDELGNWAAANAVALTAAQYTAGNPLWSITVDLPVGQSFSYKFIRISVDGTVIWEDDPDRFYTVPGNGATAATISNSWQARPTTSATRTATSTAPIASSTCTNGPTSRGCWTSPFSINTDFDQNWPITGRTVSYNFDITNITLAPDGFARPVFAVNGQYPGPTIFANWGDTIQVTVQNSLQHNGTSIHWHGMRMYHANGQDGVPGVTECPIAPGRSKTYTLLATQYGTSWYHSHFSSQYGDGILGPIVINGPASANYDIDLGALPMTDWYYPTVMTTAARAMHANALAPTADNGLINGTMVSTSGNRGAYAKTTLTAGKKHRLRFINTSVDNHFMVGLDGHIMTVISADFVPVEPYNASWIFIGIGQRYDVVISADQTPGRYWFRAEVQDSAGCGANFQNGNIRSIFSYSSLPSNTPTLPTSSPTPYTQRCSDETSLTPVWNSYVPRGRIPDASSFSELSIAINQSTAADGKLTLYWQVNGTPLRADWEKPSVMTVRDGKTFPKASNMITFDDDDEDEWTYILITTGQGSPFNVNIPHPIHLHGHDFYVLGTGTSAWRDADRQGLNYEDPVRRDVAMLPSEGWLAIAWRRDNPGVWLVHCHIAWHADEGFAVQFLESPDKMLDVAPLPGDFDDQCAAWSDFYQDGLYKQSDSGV
The experiment in a line: isothermal titration calorimetry, one-site model. The following applies: 20 mM sodium acetate, pH 5.5, 25 °C; starch mimic, CBM20 starch-binding module, not the laccase active site. The source says:
isothermal titration calorimetry, one-site model on ZtrLac1A | ZtrLac1A binds to β-CD with an association constant of Ka
(Isothermal titration calorimetry measures the heat released or taken up as one component is titrated into another.)

The structures appear in SMILES notation.

Turning to `OC[C@H]1O[C@@H]2O[C@H]3[C@H](O)[C@@H](O)[C@@H](O[C@H]4[C@H](O)[C@@H](O)[C@@H](O[C@H]5[C@H](O)[C@@H](O)[C@@H](O[C@H]6[C@H](O)[C@@H](O)[C@@H](O[C@H]7[C@H](O)[C@@H](O)[C@@H](O[C@H]8[C@H](O)[C@@H](O)[C@@H](O[C@H]1[C@H](O)[C@H]2O)O[C@@H]8CO)O[C@@H]7CO)O[C@@H]6CO)O[C@@H]5CO)O[C@@H]4CO)O[C@@H]3CO` [β-CD, β-cyclodextrin], the dissociation constant (Kd) – broadly, the concentration at which binding is half-saturated – was 32.6 ± 2.4 µM.
